Entries after “also recorded” stand apart in the source; their conditions may differ.
Key:
[1] = Cellular toxicity assay (MTT); format: cell-based, human; conditions: human, HuH-7 cells, MTT
HuH-7 cells = experiment: Cellular toxicity assay (MTT); format: cell-based, human; conditions: HuH-7 cells, 24, 48 and 72 h, up to 100 µM

Row | SMILES | CC50 at 24 h ([1]; 24h) [µM] | viability at 24 h, 100 µM ([1]; 24h, highest concentration (100 µM), read-out: Percentage of HuH-7 cells viability at the highest compound concentration tested, 24h) [%] | CC50 at 48 h ([1]; 48h) [µM] | viability at 48 h, 100 µM ([1]; 48h, highest concentration (100 µM), read-out: Percentage of HuH-7 cells viability at the highest compound concentration tested, 48h) [%] | CC50 at 72 h ([1]; 72h) [µM] | viability at 72 h, 100 µM ([1]; 72h, highest concentration (100 µM), read-out: Percentage of HuH-7 cells viability at the highest compound concentration tested, 72h) [%] | toxicity (in words) (HuH-7 cells)
1 | NS(=O)(=O)c1ccc(/N=C2\S/C(=C3\C(=O)Nc4c(F)cccc43)C(=O)N2C2CC2)cc1 [compound 3h] | > 100 | 70 | > 100 | 60 | > 100 | 60 | weak toxicity; also recorded: nontoxic
2 | CC[C@@]1(O)C(=O)OCc2c1cc1n(c2=O)Cc2cc3ccccc3nc2-1 [Camptothecin, reference compound] | > 10 | – | 8.5 ± 0.9 | – | 0.5 ± 0.02 | – | –
